Measurements from US20250325677A1, “STAT6 DEGRADERS” (Gilead Sciences, Inc., priority 2024, published 2025).

Experiments:
[1] = test system: eotaxin-3 release; experiment: Human whole blood eotaxin-3 assay (IL-4 stimulated); format: cell-based; settings: human whole blood, IL-4 0.4 nM, 48 hours; geometric mean; given for compounds with >80% Emax; read-out: Eotaxin-3 EC50
How it was run: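 Human whole blood was preincubated with compound for 120 min at 37 °C, then stimulated with recombinant human IL-4 (E. coli) at 0.4 nM final for 48 h. Inhibition of eotaxin-3 release gave EC50 values.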

[2] = molecular target: STAT6 (Homo sapiens (Human), UniProt P42226); experiment: STAT6 degrader assay (HiBiT, HeLa LgBiT clone 4.14); format: cell-based; settings: HeLa LgBiT clone 4.14, 4-24 h; geometric mean; given for compounds with >80% Emax; read-out: STAT6 degradation DC50
Chain of STAT6 (P42226 whole entry): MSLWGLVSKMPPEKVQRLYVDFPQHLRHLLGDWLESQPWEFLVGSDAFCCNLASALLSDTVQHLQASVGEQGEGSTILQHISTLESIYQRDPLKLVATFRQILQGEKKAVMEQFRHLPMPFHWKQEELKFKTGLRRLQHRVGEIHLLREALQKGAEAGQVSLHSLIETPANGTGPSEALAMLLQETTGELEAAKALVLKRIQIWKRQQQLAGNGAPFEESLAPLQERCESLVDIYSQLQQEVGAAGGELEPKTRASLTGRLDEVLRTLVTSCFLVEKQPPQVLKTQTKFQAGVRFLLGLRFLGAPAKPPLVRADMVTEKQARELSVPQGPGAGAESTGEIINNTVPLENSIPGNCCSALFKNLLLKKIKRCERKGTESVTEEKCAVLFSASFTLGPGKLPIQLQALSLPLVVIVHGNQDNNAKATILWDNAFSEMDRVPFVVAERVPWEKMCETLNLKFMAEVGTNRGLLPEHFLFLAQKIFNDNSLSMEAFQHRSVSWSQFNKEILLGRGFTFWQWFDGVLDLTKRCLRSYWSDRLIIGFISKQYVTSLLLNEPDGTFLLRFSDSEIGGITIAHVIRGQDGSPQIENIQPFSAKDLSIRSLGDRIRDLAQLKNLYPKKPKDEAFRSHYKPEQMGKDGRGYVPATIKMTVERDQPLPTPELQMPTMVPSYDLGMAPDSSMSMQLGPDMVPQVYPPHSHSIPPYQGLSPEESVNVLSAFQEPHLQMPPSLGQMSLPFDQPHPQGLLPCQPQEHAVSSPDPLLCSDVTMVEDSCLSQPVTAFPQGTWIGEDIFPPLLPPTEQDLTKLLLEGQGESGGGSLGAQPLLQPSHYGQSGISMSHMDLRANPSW
How it was run: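 HeLa LgBiT clone 4.14 cells with HiBiT knocked into endogenous STAT6 were treated with compound for 4-24 h at 37° C. Luminescence after Nano-GLO substrate (0.5 h) measured remaining STAT6; 50 μM terfenadine wells defined 100% degradation, and DC50 (nM) was derived.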

Compound	EC50 [1]	DC50 [2]
C[C@H]1CN(Cc2ccc3c(c2)C2(CC2)C(=O)N3C2CCC(=O)NC2=O)CCN1CC1CCN(C(=O)c2cc(F)c(C3CCN(Cc4cc5c(-c6ccc(N)nc6)ccnc5n4C)CC3)c(F)c2)CC1 (stereo partly drawn) [Example 3h24, 3-(5′-(((S)-4-((1-(4-(1-((4-(6-aminopyridin-3-yl)-1-methyl-1H-pyrrolo[2,3-b]pyridin-2-yl)methyl)piperidin-4-yl)-3,5-difluorobenzoyl)piperidin-4-yl)methyl)-3-methylpiperazin-1-yl)methyl)-2′-oxospiro[cyclopropane-1,3′-indolin]-1′-yl)piperidine-2,6-dione]	3.9 nM	1.4 nM
CNc1ccc(-c2ccnc3c2cc([C@H](C)N2CCC(c4ccc(C(=O)N5CCC(CN6CCN(Cc7ccc8c(c7)n(C7CC7)c(=O)n8C7CCC(=O)NC7=O)C[C@@H]6C)CC5)cc4)CC2)n3C)cn1 (stereo partly drawn) [Example 3h25, 3-(3-cyclopropyl-5-(((S)-3-methyl-4-((1-(4-(1-((S)-1-(1-methyl-4-(6-(methylamino)pyridin-3-yl)-1H-pyrrolo[2,3-b]pyridin-2-yl)ethyl)piperidin-4-yl)benzoyl)piperidin-4-yl)methyl)piperazin-1-yl)methyl)-2-oxo-2,3-dihydro-1H-benzo[d]imidazol-1-yl)piperidine-2,6-dione]	3.4 nM	1.9 nM
C[C@H]1CN(Cc2ccc3c(c2)C(C)(C)C(=O)N3[C@H]2CCC(=O)NC2=O)CCN1CC1CCN(C(=O)c2ccc(C3CCN([C@@H](C)c4cc5c(-c6ccc(N)nc6)ccnc5n4C)CC3)cc2)CC1 [Example 3h31, (S)-3-(5-(((S)-4-((1-(4-(1-((S)-1-(4-(6-aminopyridin-3-yl)-1-methyl-1H-pyrrolo[2,3-b]pyridin-2-yl)ethyl)piperidin-4-yl)benzoyl)piperidin-4-yl)methyl)-3-methylpiperazin-1-yl)methyl)-3,3-dimethyl-2-oxoindolin-1-yl)piperidine-2,6-dione]	8 nM	2.5 nM
C[C@H]1CN(Cc2ccc3c(c2)C(C)(C)C(=O)N3[C@@H]2CCC(=O)NC2=O)CCN1CC1CCN(C(=O)c2ccc(C3CCN([C@@H](C)c4cc5c(-c6ccc(N)nc6)ccnc5n4C)CC3)cc2)CC1 [Example 3h32, (R)-3-(5-(((S)-4-((1-(4-(1-((S)-1-(4-(6-aminopyridin-3-yl)-1-methyl-1H-pyrrolo[2,3-b]pyridin-2-yl)ethyl)piperidin-4-yl)benzoyl)piperidin-4-yl)methyl)-3-methylpiperazin-1-yl)methyl)-3,3-dimethyl-2-oxoindolin-1-yl)piperidine-2,6-dione]	22.4 nM	2.9 nM
CNc1ccc(-c2ccnc3c2cc([C@H](C)N2CC=C(c4c(C)cc(C(=O)N5CCC(CN6CCN(Cc7cc8c(cc7F)N(C7CCC(=O)NC7=O)C(=O)C8(C)C)C[C@@H]6C)CC5)cc4F)CC2)n3C)cn1 (stereo partly drawn) [Example 3h33, 3-(6-fluoro-5-(((S)-4-((1-(3-fluoro-5-methyl-4-(1-((S)-1-(1-methyl-4-(6-(methylamino)pyridin-3-yl)-1H-pyrrolo[2,3-b]pyridin-2-yl)ethyl)-1,2,3,6-tetrahydropyridin-4-yl)benzoyl)piperidin-4-yl)methyl)-3-methylpiperazin-1-yl)methyl)-3,3-dimethyl-2-oxoindolin-1-yl)piperidine-2,6-dione]	40.4 nM	36.7 nM
CNc1ccc(-c2ccnc3c2cc([C@H](C)N2CC=C(c4c(C)cc(C(=O)N5CCC(CN6CCN(Cc7cc8c(cc7F)N(C7CCC(=O)NC7=O)C(=O)C87CC7)CC6)CC5)cc4F)CC2)n3C)cn1 (stereo partly drawn) [Example 3h34, 3-(6′-fluoro-5′-((4-((1-(3-fluoro-5-methyl-4-(1-((S)-1-(1-methyl-4-(6-(methylamino)pyridin-3-yl)-1H-pyrrolo[2,3-b]pyridin-2-yl)ethyl)-1,2,3,6-tetrahydropyridin-4-yl)benzoyl)piperidin-4-yl)methyl)piperazin-1-yl)methyl)-2′-oxospiro[cyclopropane-1,3′-indolin]-1′-yl)piperidine-2,6-dione]	8.5 nM	5.5 nM
